# Results taken from patent US8008259B2, “Neurotrophin-derived peptide sequences” (Copenhagen University, Techtrans Unit, priority 2005, dated 2011).
# Columns and labels:
# [1] = molecular target: TrkC (Homo sapiens, UniProt Q16288); assay: Surface Plasmon Resonance binding to immobilized TrkC; details: SPR, 25° C., HBS-EP buffer pH 7.4, receptor immobilized on CM4 chip
# Protocol: The TrkA, TrkB and TrkC receptors and p75^NTR were immobilized on a sensor chip, CM4, using an amine-coupling kit as follows: the chip was activated by 20 μl activation solution, N-hydroxysuccinimide, (NHS) and N-ethyl-N′-(3-[…])-carbodiimide (EDC), the protein was immobilized using 30 μl of a mixture of 4 μl (0.5 μg/ml) protein in 50 μl 10 mM sodium acetate buffer (pH 4.0); and the chip was blocked by 35 μl blocking solution (ethanolamine-HCl). The receptor surface was regenerated between ligand injections with 15 μl 2 mM NaCl or 10 mM glycine-HCl, pH 2.5. In the present experiments a flow rate of 5 μl/min was used.
# The curve corresponding to the difference between binding to the Trk receptors or the […] receptor and a blank chip was used for analysis.
# [2] = system: cerebellar granule neurons (CGN); assay: Neurite outgrowth of primary cerebellar granule neurons in culture; assay type: cell-based, rat; details: CGN from 7 day old rats, peptide 3-81 μg/ml, 24 hours
# Protocol: Dissociated cerebellar neurons were isolated from 7 day old rats. Cerebellum was isolated from the brain in ice cold modified Krebs Ringer solution, cleared of blood vessels, roughly homogenised by chopping and then trypsinised. The dissociated cells were washed in the presence of DNAse 1 and soybean trypsin inhibitor. Postnatal hippocampal neurons or cerebellar granule neurons (CGN) were plated at a density of 10,000 cells/cm^2 on uncoated 8-well permanox Lab-Tek chamber slides in Neurobasal medium supplemented with 0.4% (w/v) bovine serum albumin (BSA; Sigma-Aldrich), 2% (v/v) B27 Neurobasal supplement, 1% (v/v) glutamax, 100 U/ml penicillin, 100 μg/ml streptomycin and 2% 1 M HEPES (all from Gibco, BRL). After 24 hours, the neurons were fixed with 4% (v/v) formaldehyde for 20 minutes and thereafter immunostained using primary rabbit antibodies against GAP-43 and Alexa Fluor secondary goat anti-rabbit Ig antibodies. Images of at least 200 neurons for each group in each individual experiment were obtained systematically by computer assisted fluorescence microscopy as previously described (Rønn et al., 2000). Briefly, a Nikon Diaphot inverted microscope with a Nikon Plan 20× objective (Nikon, Tokyo, Japan) coupled to a video camera (Grundig Electronics, Germany) was used for recordings. A software package Prima developed at the Protein Laboratory (Copenhagen, Denmark) was used to make a stereologically based determination of neurite length (Rønn et al., 2000).
# CGN prepared as described above were treated with different concentrations (3-81 μg/ml) of peptides NGF-C2, NGF-D, NGF-E, NGF-C1, NGF-EE, BDNF-E or BDNF-EE.
# [3] = system: focal brain injury; assay: Traumatic brain injury model (focal cryo-lesion of right fronto-parietal cortex), immunohistochemistry; assay type: in vivo, rat; details: lesioned rats, 10 mg/kg/injection subcutaneously on day (−1), 1 and 3
# Protocol: (§1) A focal brain injury on the right fronto-parietal cortex was made by applying a piece of dry-ice (−78° C.) directly onto the skull for 30 seconds in mice and 60 seconds in rats, as previously described in details (Penkowa et al., 2003).
# Histochemistry and immunohistochemistry were performed on sections cut from organs taken from fixated animals. Rats and mice were deeply anesthetized with Brietal and flushed by cardiac perfusion with saline containing heparine (0.9% NaCl, 3 ml/L 5000 IU heparine) for 2 minutes followed by fixation with Zamboni's fixative (pH 7.4) for 4-8 minutes depending on the size of the animal. For immunohistochemical investigation, brain were dissected and postfixed in Zamboni's for 2-3 hours, dehydraded in graded alcohol followed by xylol and subsequently embedded in paraffin before being cut in 3 μm frontal sections throughout the entire area of the cryo lesion. […]
# Following treatment as described above, sections were incubated overnight at 5° C. with one of the following primary antibodies: polyclonal rabbit anti-cow glial fibrillary acidic protein (GFAP) 1:250 (a marker for astrocytes; DakoCytomation); monoclonal mouse anti-8-hydroxydeoxyguanosine (8-OH-dG) diluted 1:100 in goat serum (a marker for DNA oxidation; Chemicon, Temacula, Calif., USA). The primary antibody was detected with biotynilated secondary antibodies, incubated with streptavidin-biotin-peroxidase complex for 30 min. […]
# as §1, with “In vivo experiments—A” for “A”, “2003). […] The primary antibody was detected with biotynilated secondary antibodies, incubated with streptavidin-biotin-peroxidase complex for 30 min. […]” for “2003).”
# Chain of TrkC (Q16288 32-839, species assumed): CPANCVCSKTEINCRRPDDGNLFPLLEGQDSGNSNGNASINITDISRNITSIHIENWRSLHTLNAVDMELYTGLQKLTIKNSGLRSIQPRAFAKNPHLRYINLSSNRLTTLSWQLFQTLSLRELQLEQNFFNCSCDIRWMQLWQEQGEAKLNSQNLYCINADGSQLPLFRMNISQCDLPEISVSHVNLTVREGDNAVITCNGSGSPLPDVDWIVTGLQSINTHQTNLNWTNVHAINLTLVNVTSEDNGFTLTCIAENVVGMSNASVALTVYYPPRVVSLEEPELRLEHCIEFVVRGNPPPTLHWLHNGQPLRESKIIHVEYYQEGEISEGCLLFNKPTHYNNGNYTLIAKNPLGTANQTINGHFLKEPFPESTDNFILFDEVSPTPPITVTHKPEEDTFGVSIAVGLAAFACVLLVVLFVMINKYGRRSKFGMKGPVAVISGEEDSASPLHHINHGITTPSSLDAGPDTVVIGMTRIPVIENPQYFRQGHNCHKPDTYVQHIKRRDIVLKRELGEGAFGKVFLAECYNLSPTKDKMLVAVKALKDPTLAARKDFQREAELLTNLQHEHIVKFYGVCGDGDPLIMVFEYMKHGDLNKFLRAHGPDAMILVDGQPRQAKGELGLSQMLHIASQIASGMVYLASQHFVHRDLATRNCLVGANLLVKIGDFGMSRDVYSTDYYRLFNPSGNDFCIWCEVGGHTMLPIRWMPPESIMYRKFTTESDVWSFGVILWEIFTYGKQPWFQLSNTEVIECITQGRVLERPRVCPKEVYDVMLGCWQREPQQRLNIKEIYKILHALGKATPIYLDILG
substance,measurement,setting,value
"BDNF: Brain-derived neurotrophic factor, member of the neurotrophin family, reference ligand in SPR",Kd,[1],0.014 µM
H-CVLSRKAVRRA-OH [NGF-C2],neurite outgrowth from primary neurons in culture,[2],significantly stimulate neurite outgrowth
H-RGIDKRHWNSQ-OH [BDNF-E],neurite outgrowth from primary neurons in culture,[2],significantly stimulate neurite outgrowth
H-RGIDSKHWNSY-OH [NGF-E],neurite outgrowth from primary neurons in culture,[2],significantly stimulate neurite outgrowth
H-SYVRALTMDSKKRIGWR-OH [BDNF-EE],neurite outgrowth from primary neurons in culture,[2],significantly stimulate neurite outgrowth
same,cortical astrocytes as reflected by immunostaining for GFAP,[3],activation of cortical astrocytes
same,microglia activation as reflected by binding of tomato lectin,[3],inhibition of microglia activation
same,oxidative stress as reflected by immunostaining for 8-hydroxydeoxyguanosine,[3],inhibition of oxidative stress
H-TFVKALTMDGKQAAWR-OH [NGF-EE],neurite outgrowth from primary neurons in culture,[2],significantly stimulate neurite outgrowth
"NGF-D: NGF-derived peptide, amino acids 2-14 of SEQ ID NO: 1 (YETKCRDPNPVDSG); lacks the hydrophobic residue of motif I (listed as Homo sapiens)",neurite outgrowth from primary neurons in culture,[2],does not have neuritogenic activity
"RIDTACV (listed as Homo sapiens) [NGF-C1, NGF-derived peptide, motif I]",neurite outgrowth from primary neurons in culture,[2],significantly stimulate neurite outgrowth
